Measurements as given in patent US20120039847A1, “Hepatitis C Virus Inhibitors” (priority 2010, published 2012).

System: HCV genotype 1b replicon (2209-23 cells, Huh7)
Assay: HCV replicon assay (Renilla luciferase reporter)
Format: cell-based
Details: Hepatitis C virus, Huh-7, 72 h, Huh7-derived cell line 2209-23, three days incubation, luciferase readout

SMILES	IC50 [nM]
COC(=O)N[C@H](C(=O)N1CCC[C@H]1C(=O)Nc1ccc2cc(-c3ccc(-c4cnc([C@@H]5CCCN5C(=O)[C@@H](NC(=O)OC)C(C)C)[nH]4)cc3)ccc2c1)C(C)C [I-1, ((S)-1-{(S)-2-[6-(4-{2-[(S)-1-((S)-2-Methoxycarbonylamino-3-methyl-butyryl)-pyrrolidin-2-yl]-3H-imidazol-4-yl}-phenyl)-naphthalen-2-ylcarbamoyl]-pyrrolidine-1-carbonyl}-2-methyl-propyl)-carbamic acid methyl ester]	0.041
COC(=O)N[C@H](C(=O)N1CCC[C@H]1C(=O)NC1CCCc2cc(-c3ccc(-c4cnc([C@@H]5CCCN5C(=O)[C@@H](NC(=O)OC)C(C)C)[nH]4)cc3)ccc21)C(C)C (stereo partly drawn) [I-2, [(S)-1-((S)-2-{5-[4-(5-{[(S)-1-((S)-2-Methoxycarbonylamino-3-methyl-butyryl)-pyrrolidine-2-carbonyl]-amino}-5,6,7,8-tetrahydro-naphthalen-2-yl)-phenyl]-1H-imidazol-2-yl}-pyrrolidine-1-carbonyl)-2-methyl-propyl]-carbamic acid methyl ester]	4
COC(=O)N[C@H](C(=O)N1CCC[C@H]1C(=O)Nc1ccc2nc(-c3ccc(-c4cnc([C@@H]5CCCN5C(=O)[C@@H](NC(=O)OC)C(C)C)[nH]4)cc3)ccc2c1)C(C)C [I-3, ((S)-1-{(S)-2-[2-(4-{2-[(S)-1-((S)-2-Methoxycarbonylamino-3-methyl-butyryl)-pyrrolidin-2-yl]-3H-imidazol-4-yl}-phenyl)-quinolin-6-ylcarbamoyl]-pyrrolidine-1-carbonyl}-2-methyl-propyl)-carbamic acid methyl ester]	0.413
COC(=O)N[C@H](C(=O)N1CCC[C@H]1C(=O)NC1CCc2cc(-c3ccc(-c4cnc([C@@H]5CCCN5C(=O)[C@@H](NC(=O)OC)C(C)C)[nH]4)cc3)ccc21)C(C)C (stereo partly drawn) [I-4, [(S)-1-((S)-2-{5-[4-(1-{[(S)-1-((S)-2-Methoxycarbonylamino-3-methyl-butyryl)-pyrrolidine-2-carbonyl]-amino}-indan-5-yl)-phenyl]-1H-imidazol-2-yl}-pyrrolidine-1-carbonyl)-2-methyl-propyl]-carbamic acid methyl ester]	0.31
COC(=O)N[C@H](C(=O)N1CCC[C@H]1C(=O)Nc1cccc2cc(-c3ccc(-c4cnc([C@@H]5CCCN5C(=O)[C@@H](NC(=O)OC)C(C)C)[nH]4)cc3)ccc12)C(C)C [I-5, [(S)-1-((S)-2-{5-[4-(5-{[(S)-1-((S)-2-Methoxycarbonylamino-3-methyl-butyryl)-pyrrolidine-2-carbonyl]-amino}-naphthalen-2-yl)-phenyl]-1H-imidazol-2-yl}-pyrrolidine-1-carbonyl)-2-methyl-propyl]-carbamic acid methyl ester]	0.2
COC(=O)N[C@H](C(=O)N1CCC[C@H]1C(=O)Nc1nccc2cc(-c3ccc(-c4cnc([C@@H]5CCCN5C(=O)[C@@H](NC(=O)OC)C(C)C)[nH]4)cc3)ccc12)C(C)C [I-6, [(S)-1-((S)-2-{5-[4-(1-{[(S)-1-((S)-2-Methoxycarbonylamino-3-methyl-butyryl)-pyrrolidine-2-carbonyl]-amino}-isoquinolin-6-yl)-phenyl]-1H-imidazol-2-yl}-pyrrolidine-1-carbonyl)-2-methyl-propyl]-carbamic acid methyl ester]	13.9
COC(=O)N[C@H](C(=O)N1CCC[C@H]1C(=O)Nc1ccc2cc(-c3ccc(-c4cnc([C@@H]5CCCN5C(=O)[C@@H](NC(=O)OC)C(C)C)[nH]4)cc3)ccc2n1)C(C)C [I-7, ((S)-1-{(S)-2-[6-(4-{2-[(S)-1-((S)-2-Methoxycarbonylamino-3-methyl-butyryl)-pyrrolidin-2-yl]-3H-imidazol-4-yl}-phenyl)-quinolin-2-ylcarbamoyl]-pyrrolidine-1-carbonyl}-2-methyl-propyl)-carbamic acid methyl ester]	0.15
COC(=O)N[C@H](C(=O)N1CCC[C@H]1C(=O)Nc1nc2cc(-c3ccc(-c4cnc([C@@H]5CCCN5C(=O)[C@@H](NC(=O)OC)C(C)C)[nH]4)cc3)ccc2[nH]1)C(C)C [I-8, [(S)-1-((S)-2-{5-[4-(2-{[(S)-1-((S)-2-Methoxycarbonylamino-3-methyl-butyryl)-pyrrolidine-2-carbonyl]-amino}-1H-benzoimidazol-5-yl)-phenyl]-1H-imidazol-2-yl}-pyrrolidine-1-carbonyl)-2-methyl-propyl]-carbamic acid methyl ester]	0.37
COC(=O)N[C@H](C(=O)N1CCC[C@H]1C(=O)NC1Cc2ccc(-c3ccc(-c4cnc([C@@H]5CCCN5C(=O)[C@@H](NC(=O)OC)C(C)C)[nH]4)cc3)cc2C1)C(C)C (stereo partly drawn) [I-9, ((S)-1-{(S)-2-[5-(4-{2-[(S)-1-((S)-2-Methoxycarbonylamino-3-methyl-butyryl)-pyrrolidin-2-yl]-3H-imidazol-4-yl}-phenyl)-indan-2-ylcarbamoyl]-pyrrolidine-1-carbonyl}-2-methyl-propyl)-carbamic acid methyl ester]	0.43
COC(=O)N[C@H](C(=O)N1CCC[C@H]1C(=O)NC1CCc2cc(-c3ccc(-c4cnc([C@@H]5CCCN5C(=O)[C@@H](NC(=O)OC)C(C)C)[nH]4)cc3)ccc2C1)C(C)C (stereo partly drawn) [I-10, ((S)-1-{(S)-2-[6-(4-{2-[(S)-1-((S)-2-Methoxycarbonylamino-3-methyl-butyryl)-pyrrolidin-2-yl]-3H-imidazol-4-yl}-phenyl)-1,2,3,4-tetrahydro-naphthalen-2-ylcarbamoyl]-pyrrolidine-1-carbonyl}-2-methyl-propyl)-carbamic acid methyl ester]	1.2
COC(=O)N[C@H](C(=O)N1CCC[C@H]1c1ncc(-c2ccc(-c3ccc4cc(NC(=O)[C@@H]5CCCN5C(C)=O)ccc4n3)cc2)[nH]1)C(C)C [I-11, ((S)-1-{(S)-2-[5-(4-{6-[((S)-1-Acetyl-pyrrolidine-2-carbonyl)-amino]-quinolin-2-yl}-phenyl)-1H-imidazol-2-yl]-pyrrolidine-1-carbonyl}-2-methyl-propyl)-carbamic acid methyl ester]	0.63
COC(=O)N[C@H](C(=O)N1CCC[C@H]1C(=O)N1CCc2cc(-c3ccc(-c4cnc([C@@H]5CCCN5C(=O)[C@@H](NC(=O)OC)C(C)C)[nH]4)cc3)ccc2C1)C(C)C [I-12, ((S)-1-{(S)-2-[5-(4-{2-[(S)-1-((S)-2-Methoxycarbonylamino-3-methyl-butyryl)-pyrrolidine-2-carbonyl]-1,2,3,4-tetrahydro-isoquinolin-6-yl}-phenyl)-1H-imidazol-2-yl]-pyrrolidine-1-carbonyl}-2-methyl-propyl)-carbamic acid methyl ester]	2.06
COC(=O)N[C@H](C(=O)N1CCC[C@H]1c1ncc(-c2ccc(-c3ccc4cc(NC(=O)[C@@H]5CCCN5C(=O)C(C)C)ccc4n3)cc2)[nH]1)C(C)C [I-13, ((S)-1-{(S)-2-[5-(4-{6-[((S)-1-Isobutyryl-pyrrolidine-2-carbonyl)-amino]-quinolin-2-yl}-phenyl)-1H-imidazol-2-yl]-pyrrolidine-1-carbonyl}-2-methyl-propyl)-carbamic acid methyl ester]	1.06
COC(=O)N[C@H](C(=O)N1CCC[C@H]1c1ncc(-c2ccc(-c3ccc4cc(NC(=O)[C@@H]5CCCN5C(=O)CC(C)C)ccc4n3)cc2)[nH]1)C(C)C [I-14, [(S)-2-Methyl-1-((S)-2-{5-[4-(6-{[(S)-1-(3-methyl-butyryl)-pyrrolidine-2-carbonyl]-amino}-quinolin-2-yl)-phenyl]-1H-imidazol-2-yl}-pyrrolidine-1-carbonyl)-propyl]-carbamic acid methyl ester]	1.7
COC(=O)N[C@H](C(=O)N1CCC[C@H]1c1ncc(-c2ccc(-c3ccc4cc(NC(=O)[C@@H]5CCCN5C(=O)c5ccccc5)ccc4n3)cc2)[nH]1)C(C)C [I-15, ((S)-1-{(S)-2-[5-(4-{6-[((S)-1-Benzoyl-pyrrolidine-2-carbonyl)-amino]-quinolin-2-yl}-phenyl)-1H-imidazol-2-yl]-pyrrolidine-1-carbonyl}-2-methyl-propyl)-carbamic acid methyl ester]	1.4
COC(=O)N[C@H](C(=O)N1CCC[C@H]1C(=O)NCc1ccc(-c2ccc(-c3cnc([C@@H]4CCCN4C(=O)[C@@H](NC(=O)OC)C(C)C)[nH]3)cc2)cc1)C(C)C [I-16, ((S)-1-{(S)-2-[(4′-{2-[(S)-1-((S)-2-Methoxycarbonylamino-3-methyl-butyryl)-pyrrolidin-2-yl]-3H-imidazol-4-yl}-biphenyl-4-ylmethyl)-carbamoyl]-pyrrolidine-1-carbonyl}-2-methyl-propyl)-carbamic acid methyl ester]	1.23
